Results published in patent US6825350B2, “Sulfonamide and sulfamide substituted imidazoquinolines and methods for the treatment of periodontal disease using these and other immune response modifiers” (3M Innovative Properties Company, priority 1999, dated 2004).
Read-outs that look alike come from different tables or passages of the source.

What was measured:
interferon (α) = experiment: Cytokine induction in human cells: interferon (α) by ELISA; type: cell-based; conditions: human PBMCs, 18 to 24 hours incubation, ELISA of culture supernatant, read-out: Lowest Effective Concentration (μM) Interferon
[1] = tested on: tumor necrosis factor (α); experiment: Cytokine induction in human cells: tumor necrosis factor (α) by ELISA; type: cell-based; conditions: human PBMCs, 18 to 24 hours incubation, ELISA of culture supernatant, read-out: Lowest Effective Concentration (μM) Tumor Necrosis Factor

| Compound | minimal effective concentration (interferon (α)) | minimal effective concentration [1] | minimal effective concentration (interferon (α); Homo sapiens, PBMC) | minimal effective concentration ([1]; Homo sapiens, PBMC) |
| --- | --- | --- | --- | --- |
| CCCCc1nc2c(N)nc3ccccc3c2n1CCCCNS(C)(=O)=O [Example 6, N^1-[4-(4-Amino-2-butyl-1H-imidazo[4,5-c]quinolin-1-yl)butyl]methanesulfonamide] | 0.00017 µM | 1.11 µM | – | – |
| CCCCS(=O)(=O)NCCCCn1cnc2c(N)nc3ccccc3c21 [Example 13, N^1-[4-(4-Amino-1H-imidazo[4,5-c]quinolin-1-y)butyl]-1-butanesulfonamide] | – | – | 10 µM | > 30 µM |
| CCCCc1nc2c(N)nc3ccccc3c2n1CCNS(=O)(=O)CCC [Example 17] | – | – | 1.11 µM | 3.33 µM |
| CCCCCCCCS(=O)(=O)NCCn1c(CCCC)nc2c(N)nc3ccccc3c21 [Example 18] | – | – | 3.33 µM | > 30 µM |
| CCCCc1nc2c(N)nc3ccccc3c2n1CCNS(=O)(=O)c1cccs1 [Example 19] | – | – | 0.12 µM | 3.33 µM |
| CCCCc1nc2c(N)nc3ccccc3c2n1CCNS(=O)(=O)c1ccccc1 [Example 20] | – | – | 0.12 µM | 3.33 µM |
| CCCCc1nc2c(N)nc3ccccc3c2n1CCNS(=O)(=O)c1ccc(Br)cc1 [Example 21] | – | – | 1.11 µM | 30 µM |
| CCCCc1nc2c(N)nc3ccccc3c2n1CCNS(=O)(=O)c1ccc(Cl)c(Cl)c1 [Example 22] | – | – | 0.37 µM | > 30 µM |
| CCCCc1nc2c(N)nc3ccccc3c2n1CCNS(=O)(=O)c1ccc(C)cc1 [Example 23] | – | – | 0.12 µM | 10 µM |
| CCCCc1nc2c(N)nc3ccccc3c2n1CCNS(=O)(=O)c1cc(Br)ccc1OC [Example 24] | – | – | 0.12 µM | 30 µM |
| CCCCc1nc2c(N)nc3ccccc3c2n1CCNS(=O)(=O)c1ccc(C(C)(C)C)cc1 [Example 25] | – | – | 3.33 µM | > 30 µM |
| CCCCc1nc2c(N)nc3ccccc3c2n1CCNS(=O)(=O)c1c(C)cc(C)cc1C [Example 26] | – | – | 10 µM | > 30 µM |
| CCCCc1nc2c(N)nc3ccccc3c2n1CCNS(=O)(=O)c1ccc(OC)cc1 [Example 27] | – | – | 1.11 µM | 30 µM |
| CCCCc1nc2c(N)nc3ccccc3c2n1CCNS(=O)(=O)Cc1ccccc1 [Example 28] | – | – | 1.11 µM | 30 µM |
| CCCCc1nc2c(N)nc3ccccc3c2n1CCNS(=O)(=O)/C=C/c1ccccc1 [Example 29] | – | – | 0.37 µM | 10 µM |
| CCCCc1nc2c(N)nc3ccccc3c2n1CCNS(=O)(=O)c1cccc2cccnc12 [Example 30] | – | – | 1.11 µM | > 30 µM |
| CCCCc1nc2c(N)nc3ccccc3c2n1CCNS(=O)(=O)c1cccc2ccccc12 [Example 31] | – | – | 1.11 µM | > 30 µM |
| CCCCc1nc2c(N)nc3ccccc3c2n1CCNS(=O)(=O)c1ccc2ccccc2c1 [Example 32] | – | – | 1.11 µM | > 30 µM |
| CCCCc1nc2c(N)nc3ccccc3c2n1CCNS(=O)(=O)c1cccc2c(N(C)C)cccc12 [Example 33] | – | – | 1.11 µM | 10 µM |

| Compound | minimal effective concentration (interferon (α)) | minimal effective concentration [1] | minimal effective concentration (interferon (α); Homo sapiens, PBMC) | minimal effective concentration ([1]; Homo sapiens, PBMC) |
| --- | --- | --- | --- | --- |
| CCCCc1nc2c(N)nc3ccccc3c2n1CCCCNS(C)(=O)=O [Example 36] | 0.0015 µM | 3.33 µM | – | – |
| CCCCc1nc2c(N)nc3ccccc3c2n1CCCCNS(=O)(=O)c1ccc(OC)cc1 [Example 37] | – | – | 0.01 µM | 1.11 µM |
| CCCCc1nc2c(N)nc3ccccc3c2n1CCCCNS(=O)(=O)C(C)C [Example 38] | – | – | 0.0015 µM | 0.37 µM |
| CCCCc1nc2c(N)nc3ccccc3c2n1CCCCNS(=O)(=O)c1ccc(C)cc1 [Example 40] | – | – | 0.0015 µM | 3.33 µM |
| CCCCc1nc2c(N)nc3ccccc3c2n1CCCCNS(=O)(=O)c1cccc2ccccc12 [Example 41] | – | – | 0.01 µM | > 30 µM |
| CCCCc1nc2c(N)nc3ccccc3c2n1CCCCNS(=O)(=O)c1ccc2ccccc2c1 [Example 42] | – | – | 0.01 µM | > 30 µM |
| CCCCc1nc2c(N)nc3ccccc3c2n1CCCCNS(=O)(=O)c1cccc2cccnc12 [Example 43] | – | – | 0.04 µM | > 30 µM |
| CCCCc1nc2c(N)nc3ccccc3c2n1CCCCNS(=O)(=O)c1cccs1 [Example 44] | 0.0015 µM | 1.11 µM | – | – |
| CCCCc1nc2c(N)nc3ccccc3c2n1CCCCNS(=O)(=O)c1c(C)cc(C)cc1C [Example 45] | – | – | 0.37 µM | > 30 µM |
| CCCCc1nc2c(N)nc3ccccc3c2n1CCCCNS(=O)(=O)c1ccc(I)cc1 [Example 46] | – | – | 0.37 µM | > 30 µM |
| CCCCc1nc2c(N)nc3ccccc3c2n1CCCCNS(=O)(=O)c1ccc(C(C)(C)C)cc1 [Example 47] | – | – | 0.37 µM | > 30 µM |
| CCCCc1nc2c(N)nc3ccccc3c2n1CCCCNS(=O)(=O)c1ccc(Cl)c(Cl)c1 [Example 48] | – | – | 0.37 µM | 10 µM |
| CCCCc1nc2c(N)nc3ccccc3c2n1CCCCNS(=O)(=O)/C=C/c1ccccc1 [Example 50] | – | – | 0.12 µM | > 30 µM |
| CCCCc1nc2c(N)nc3ccccc3c2n1CCCCNS(=O)(=O)CCC [Example 51] | – | – | 0.0015 µM | 0.37 µM |
| CCCCc1nc2c(N)nc3ccccc3c2n1CCCCNS(=O)(=O)c1cc(Br)ccc1OC [Example 52] | 0.12 µM | – | – | 10 µM |
| CCCCc1nc2c(N)nc3ccccc3c2n1CCCCNS(=O)(=O)C(F)(F)F [Example 53] | – | – | 0.01 µM | 3.33 µM |
| CCCS(=O)(=O)NCCCCn1cnc2c(N)nc3c(c21)CCCC3 [Example 54] | – | – | 10 µM | > 30 µM |
| CC(C)S(=O)(=O)NCCCCn1cnc2c(N)nc3c(c21)CCCC3 [Example 55] | – | – | 3.33 µM | > 30 µM |
| CCCCCCCCS(=O)(=O)NCCCCn1cnc2c(N)nc3c(c21)CCCC3 [Example 56] | – | – | > 30 µM | > 30 µM |

| Compound | minimal effective concentration (interferon (α)) | minimal effective concentration [1] | minimal effective concentration (interferon (α); Homo sapiens, PBMC) | minimal effective concentration ([1]; Homo sapiens, PBMC) |
| --- | --- | --- | --- | --- |
| Nc1nc2c(c3c1ncn3CCCCNS(=O)(=O)c1cccs1)CCCC2 [Example 57] | – | – | 3.33 µM | > 30 µM |
| Nc1nc2c(c3c1ncn3CCCCNS(=O)(=O)c1ccccc1)CCCC2 [Example 58] | – | – | 3.33 µM | > 30 µM |
| Nc1nc2c(c3c1ncn3CCCCNS(=O)(=O)c1ccc(Cl)cc1)CCCC2 [Example 59] | – | – | 3.33 µM | > 30 µM |
| Nc1nc2c(c3c1ncn3CCCCNS(=O)(=O)c1ccc(Cl)c(Cl)c1)CCCC2 [Example 60] | – | – | > 30 µM | > 30 µM |
| Nc1nc2c(c3c1ncn3CCCCNS(=O)(=O)c1ccc(I)cc1)CCCC2 [Example 61] | – | – | 3.33 µM | > 30 µM |
| CC(C)(C)c1ccc(S(=O)(=O)NCCCCn2cnc3c(N)nc4c(c32)CCCC4)cc1 [Example 62] | – | – | > 30 µM | > 30 µM |
| Cc1cc(C)c(S(=O)(=O)NCCCCn2cnc3c(N)nc4c(c32)CCCC4)c(C)c1 [Example 63] | – | – | > 30 µM | > 30 µM |
| Cc1ccc(S(=O)(=O)NCCCCn2cnc3c(N)nc4c(c32)CCCC4)cc1 [Example 64] | – | – | 3.33 µM | > 30 µM |
| COc1ccc(S(=O)(=O)NCCCCn2cnc3c(N)nc4c(c32)CCCC4)cc1 [Example 65] | – | – | 3.33 µM | > 30 µM |
| COc1ccc(Br)cc1S(=O)(=O)NCCCCn1cnc2c(N)nc3c(c21)CCCC3 [Example 66] | – | – | > 30 µM | 30 µM |
| Nc1nc2c(c3c1ncn3CCCCNS(=O)(=O)Cc1ccccc1)CCCC2 [Example 67] | – | – | 10 µM | > 30 µM |
| Nc1nc2c(c3c1ncn3CCCCNS(=O)(=O)/C=C/c1ccccc1)CCCC2 [Example 68] | – | – | 10 µM | > 30 µM |
| Nc1nc2c(c3c1ncn3CCCCNS(=O)(=O)c1cccc3cccnc13)CCCC2 [Example 69] | – | – | 10 µM | > 30 µM |
| Nc1nc2c(c3c1ncn3CCCCNS(=O)(=O)c1cccc3ccccc13)CCCC2 [Example 70] | – | – | > 30 µM | > 30 µM |
| CN(C)c1cccc2c(S(=O)(=O)NCCCCn3cnc4c(N)nc5c(c43)CCCC5)cccc12 [Example 71] | – | – | > 30 µM | 30 µM |
| CCCCc1nc2c(N)nc3ccccc3c2n1CCCCNS(=O)(=O)C[C@]12CC[C@H](CC1=O)C2(C)C [Example 73] | – | – | 0.001 µM | 0.1 µM |
| CCCCc1nc2c(N)nc3ccccc3c2n1CCCCNS(=O)(=O)CCCC [Example 74] | – | – | 0.001 µM | 0.01 µM |
| CCCCCCCCCCCCCCCCS(=O)(=O)NCCCCn1c(CCCC)nc2c(N)nc3ccccc3c21 [Example 75] | – | – | > 10 µM | > 10 µM |
| CCCCc1nc2c(N)nc3ccccc3c2n1CCCCNS(=O)(=O)c1c(C(C)C)cc(C(C)C)cc1C(C)C [Example 76] | – | – | > 10 µM | > 10 µM |
